Data from patent US8552022B2, “Substituted cyclopropyl compounds, compositions containing such compounds and methods of treatment” (Merck Sharp & Dohme Corp., priority 2009, dated 2013).

Target: T1, GPR119 (UniProt Q8TDV5, S309L, species not given)
T1 sequence (Q8TDV5 1-335 S309L): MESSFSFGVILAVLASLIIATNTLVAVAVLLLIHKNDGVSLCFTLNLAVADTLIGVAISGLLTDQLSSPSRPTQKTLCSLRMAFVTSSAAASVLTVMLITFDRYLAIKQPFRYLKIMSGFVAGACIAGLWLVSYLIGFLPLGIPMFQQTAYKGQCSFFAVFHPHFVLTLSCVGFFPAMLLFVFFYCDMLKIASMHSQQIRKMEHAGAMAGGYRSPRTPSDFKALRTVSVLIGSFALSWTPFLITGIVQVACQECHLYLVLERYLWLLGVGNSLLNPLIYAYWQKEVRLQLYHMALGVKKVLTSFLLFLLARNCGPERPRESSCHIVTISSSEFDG
Experiment: GPR119 signaling, cyclic AMP (cAMP) HTRF assay
Format: cell-based, human (S309L variant) or murine
Settings: CHO cells with Gα15 and murine GPR119 or HEK293 Flp-In cells with human GPR119 S309L, read-out: EC50 (agonist activation of GPR119, cAMP)
Text: The title compound was synthesized using 2-{2-[1-(5-chloropyrimidin-2-yl)piperidin-4-yl]cyclopropyl}ethyl 4-methylbenzenesulfonate from step 1 of this example by a general procedure analogous that described in Example 59. LRMS calc: 424.9; obs: 425.01 (M+1). Measurement of GPR119Signaling Using a Cyclic AMP (cAMP) Homogenous Time Resolved Fluorescence (HTRF) Assay
Chinese hamster ovary (CHO) cell lines stably transfected with the permissive guanine nucleotide binding protein alpha 15 (Gα15) and murine GPR119 were maintained in DMEM media containing FBS, penicillin-streptomycin, puromycin, and G418 (geneticin). Alternatively, human embryonic kidney (HEK)293 Flp-In cells (Invitrogen, Carlsbad, Calif.) were stably transfected with a human SNP variant (S309L) of GPR119 and maintained in DMEM media containing FBS, penicillin-streptomycin, and hygromycin. Agonist activation of the GPR119 receptor was measured in receptor transfected cells described above, treated with compounds of this invention, using a commercial homogenous time resolved fluorescence (HTRF) kit for measurement of cAMP (CisBio, Bedford, Mass.). The assay was performed in 96-well half-volume plates (murine) or 384-well plates (human) following the manufacturers instructions. Briefly, suspended cells were incubated with a dose titration of test compound at room temperature for 60 min, lysed, and incubated with HTRF reagents for an additional 60 min. The plate was read using an Envision multilabel reader (Perkin Elmer) adjusted to read time resolved fluorescence and the cAMP concentrations were extrapolated from a cAMP calibration curve. […] The concentration of test compound required to stimulate a half-maximal response (EC50), and efficacy as compared to an internal agonist control, was determined from a sigmoidal 4-parameter curve fit of the resulting plot of normalized activity versus compound concentration.

| EC50 [nM] | Compound |
| --- | --- |
| < 10 | Clc1cnc(N2CCC([C@H]3C[C@H]3CCNc3ccc(-n4cnnc4)cc3)CC2)nc1 [Ex 25, N-(2-{(1S,2S)-2-[1-(5-chloropyrimidin-2-yl)piperidin-4-yl]cyclopropyl}ethyl)-4-(4H-1,2,4-triazol-4-yl)aniline] |
| 10 to 50 | Cn1cc2cc(NCC[C@@H]3C[C@@H]3C3CCN(c4ncc(Cl)cn4)CC3)ccc2n1 [Ex 49, N-(2-{(1S,2S)-2-[1-(5-chloropyrimidin-2-yl)piperidin-4-yl]cyclopropyl}ethyl)-2-methyl-2H-indazol-5-amine] |
| < 10 | Clc1cnc(N2CCC([C@H]3C[C@H]3CCNc3ccc(-n4cnnn4)nc3)CC2)nc1 [Ex 15, N-(2-{(1S,2S)-2-[1-(5-chloropyrimidin-2-yl)piperidin-4-yl]cyclopropyl}ethyl)-6-(1H-tetrazol-1-yl)pyridin-3-amine] |
| < 10 | Clc1cnc(N2CCC([C@H]3C[C@H]3CCNc3ccc(-n4cncn4)cc3)CC2)nc1 [Ex 11, N-(2-{(1S,2S)-2-[1-(5-chloropyrimidin-2-yl)piperidin-4-yl]cyclopropyl}ethyl)-4-(1H-1,2,4-triazol-1-yl)aniline] |
| < 10 | CC1(C(=O)Nc2ccc(NCC[C@@H]3C[C@@H]3C3CCN(c4ncc(Cl)cn4)CC3)nc2)CC1 [Ex 37, N-{6-[(2-{(1S,2S)-2-[1-(5-chloropyrimidin-2-yl)piperidin-4-yl]cyclopropyl}ethyl)amino]pyridin-3-yl}-1-methylcyclopropanecarboxamide] |
